Results from article PMC12775124, “CUL4A-DDB1-DCAF10 is an N-recognin for N-terminally acetylated Src kinases” (Nature Communications, 2026).
Where two headings read alike, the source gives them in different places.

Assays:
[1] = test system: DCAF10; assay: Peptide pull-down with quantitative MS, HeLa lysate, DCAF10; format: binding, human (HeLa)
[2] = molecular target: T1, human NatA (Homo sapiens, UniProt P41227+Q9BXJ9); assay: In vitro Nt-acetylation assay (NatA, CPM fluorescence); format: biochemical
T1 construct: Human NatA (hNatA) full-length (FL) was cloned; made in house; host or cells: Tnao38 insect cells (baculovirus, pFL vector)
T1 sequence (P41227 1-235): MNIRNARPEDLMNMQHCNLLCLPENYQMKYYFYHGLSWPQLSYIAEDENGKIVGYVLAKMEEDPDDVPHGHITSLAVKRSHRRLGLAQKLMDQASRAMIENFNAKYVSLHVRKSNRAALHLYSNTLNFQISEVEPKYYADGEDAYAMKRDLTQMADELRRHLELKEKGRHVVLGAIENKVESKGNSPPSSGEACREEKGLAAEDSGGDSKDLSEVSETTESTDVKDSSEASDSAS
T1 sequence (Q9BXJ9 1-866 partner): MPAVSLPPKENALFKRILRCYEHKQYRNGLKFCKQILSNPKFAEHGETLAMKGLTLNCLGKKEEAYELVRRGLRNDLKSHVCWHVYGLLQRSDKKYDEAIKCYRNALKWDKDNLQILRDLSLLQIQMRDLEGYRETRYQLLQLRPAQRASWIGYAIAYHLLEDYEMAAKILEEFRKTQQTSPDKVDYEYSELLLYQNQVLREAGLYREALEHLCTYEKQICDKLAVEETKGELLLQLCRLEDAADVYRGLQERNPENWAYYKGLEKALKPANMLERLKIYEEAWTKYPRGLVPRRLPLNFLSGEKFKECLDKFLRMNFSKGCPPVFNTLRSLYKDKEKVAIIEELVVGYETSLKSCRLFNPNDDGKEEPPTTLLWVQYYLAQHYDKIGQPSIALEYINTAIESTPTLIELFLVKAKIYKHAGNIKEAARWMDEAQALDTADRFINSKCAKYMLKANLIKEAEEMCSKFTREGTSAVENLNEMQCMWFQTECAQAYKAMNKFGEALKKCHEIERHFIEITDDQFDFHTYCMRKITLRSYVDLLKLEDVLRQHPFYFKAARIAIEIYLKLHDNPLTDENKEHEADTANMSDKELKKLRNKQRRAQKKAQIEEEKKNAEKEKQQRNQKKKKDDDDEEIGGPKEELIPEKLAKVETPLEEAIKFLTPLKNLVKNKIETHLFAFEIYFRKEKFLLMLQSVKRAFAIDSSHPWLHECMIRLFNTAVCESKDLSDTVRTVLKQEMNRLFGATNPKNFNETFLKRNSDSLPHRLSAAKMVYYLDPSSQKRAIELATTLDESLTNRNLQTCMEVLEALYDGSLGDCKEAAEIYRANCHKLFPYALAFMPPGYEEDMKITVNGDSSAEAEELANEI
Experimental: Gly-starting proteins can be substrates of the Nt-acetyltransferase NatA[3],[21]. Having established direct DCAF10 binding to Ac-Gly N-termini, we next asked whether SFK N-termini are bona fide NatA substrates. We developed an in vitro Nt-acetylation assay comprising purified NatA, acetyl-CoA (Ac-CoA), and the peptide of interest (Fig. 3a, b)[33]. Acetyl-group transfer was assessed using CPM [7-(diethylamino)−3-(4′-maleimidophenyl)−4-methylcoumarin], which reacts specifically with free thiol groups to produce a highly fluorescent product (excitation: 390 nm; emission: 479 nm), allowing detection of CoA production after acetyl-group transfer to the peptide (Supplementary Fig. 4e). We optimized the conditions to determine Michaelis–Menten kinetics for NatA-mediated Nt-acetylation with a target peptide ([…]) previously used for NatA assays and co-crystallization (Supplementary Fig. 4f)[34]. […] Likely, this was due to a Km even higher than that of Src, and implying that the peptide concentrations in the assay might have been insufficient for the reaction to proceed with an appreciable rate. […] Negative controls (COX17 and Ac-Lyn) produced low signals. […] Given the direct association of NatA with SFK N-termini at the ribosomal exit tunnel, however, we surmise that Nt-acetylation of SFKs in cells may proceed despite these unfavorable kinetic parameters.
The assay was performed essentially as described previously. Briefly, peptide substrates (Supplementary Table 1) were incubated with purified human NatA and acetyl-CoA; acetylation was quantified by CPM fluorescence (CoA detection), and Michaelis–Menten parameters were derived from 8-point 1:1 dilution series within the linear range (n = 4 independent enzymatic assays). Full buffer compositions, reagent concentrations, plate format, instrument settings, controls, and fitting procedures are provided in the Supplementary Methods and Tables. […]
301 Cloning, expression, and purification of human NatA
302 Human NatA (hNatA) full-length (FL) was cloned in a pFL vector expressing both
303 genes, NAA15 with a 6× C-term histidine tag (NAA15-6xHIS) and NAA102. The
304 expression was carried out in insect cells (Tnao38) for 72 h infected 1:20 with
305 baculovirus. Washed cell pellets were lysed by sonication in a lysis buffer containing 200
306 mM NaCl, 50 mM HEPES pH 8.0, 20 mM Imidazole, and 2 mM TCEP. The protein
307 purification was performed as a three-step purification, starting with an affinity nickel
308 column, followed by an ion-exchange column with a gradient of 50–300 mM NaCl, and
309 finished with size exclusion chromatography (SEC) using an S200 10/300 column. The
310 main peaks were collected, and the protein was concentrated in the SEC buffer (150 mM
311 NaCl, 50 mM HEPES pH 8.0, 1 mM EDTA). The purified hNatA was flash-frozen in
312 liquid nitrogen and stored at -80°C.
314 In vitro Nt-acetylation assay
315 The method has been described in detail previously2. Briefly, different peptides
316 (Supplementary Table 1) and concentrations (an eight-step, 1:1 dilution series for
317 Michaelis-Menten curves) as indicated were incubated with 20 nM hNatA and 80 µM Ac-
318 CoA in reaction buffer (50 mM HEPES pH 8.0, 0.5 mM EDTA, 0.005% CHAPS) for 60
319 (Src) or 120 min (Lyn), at RT in a 384-well microplate (Corning 4514) (n = 4).
320 Afterwards, the enzymatic reaction was stopped by adding 1:1 DMSO with 10 µM (final
321 concentration 5 µM) of the thiol reactive CPM (7-Diethylamino-3-
322 (4'Maleimidylphenyl)4-Methylcoumarin). After 1 h at RT, the readout was performed
323 with a Tecan Spark® Multimode Microplate Reader (excitation 390 nm, emission 479
324 nm). Background values at 0 µM peptide were subtracted, and control reactions omitting
325 NatA or Ac-CoA were performed. Dilution series of CoA incubated with 5 µM CPM were
326 used to generate a linear equation (y = 10.99*x + 81.06) to calculate acetylation velocities
327 for NatA-mediated peptide acetylation. […]

Q: With “ACIKSKGKDSKK [Ac-Lyn^G2A, Ac-Ala mutant Nt-peptide of Lyn]” as the sequence, how does the “DCAF10 interaction, fold lower relative to Ac-Gly peptide” value ([1]; Ac-Ala (Ac-Lyn^G2A) vs Ac-Gly (Ac-Lyn^WT), HeLa lysate) read?
A: 15 fold

Q: What about the “DCAF10 binding of Nt-mutant peptides (in words)” value ([1]; n = 3 replicates) of the same sequence?
A: only identified in 2 of 3 replicates

Q: Which “DCAF10 binding, Nt-Ac vs Nt-Myr (in words)” value ([1]; HeLa lysate) does the source give for “GSNKSKPKDAKK [Myr-Src, Nt-peptide of Src, N-myristoylated]” here?
A: no detectable DCAF10 binding

Q: Which “log₂ difference Ac-Lyn^swap vs Ac-THOC7^swap, DCAF10” value ([1]; HeLa lysate, n = 3) does the source give for “GCITDDGKDSKK [Ac-Lyn^swap, Lyn peptide carrying Thr5-Asp6-Asp7 of THOC7]” here?
A: −1.23

Q: What about the “DCAF10 binding of swap peptide vs its WT (in words)” value ([1]; direct comparisons Ac-Lyn vs Ac-Lyn^swap and Ac-THOC7 vs Ac-THOC7^swap, HeLa lysate) of the same sequence?
A: significantly reduced

Q: With “GSNKSKPKDAKK [Nt-free Src, Nt-peptide of Src, Nt-free]” as the sequence, how does the Km ([2]; 20 nM NatA, 80 µM Ac-CoA, pH 8.0, RT, 60 min, CPM fluorescence 390/479 nm, mean ± s.d., n = 4, read-out: Km) read?
A: 144 ± 24 µM

Q: What about the Km ([2]; conclusion: poor NatA substrates, read-out: Km, summary statement) of the same sequence?
A: > 100 µM

Q: What about the Km ([2]; rounded values in Peer Review File, read-out: Km, as given in rebuttal) of the same sequence?
A: 143 µM

Q: For “GCIKSKENKSKK [Ac-Yes, Nt-peptide of Yes, Nt-acetylated]”, which “DCAF10 binding (in words)” value ([1]; HeLa lysate, Nt-Ac vs Nt-free peptides) is on record?
A: bound to DCAF10

Q: Which “log₂ difference, Ac-Lyn^WT vs Ac-Lyn^AAA, DCAF10” value ([1]; HeLa lysate, n = 3) does the source give for “GCIAAAGKDSKK [Ac-Lyn^AAA, Ala5-Ala6-Ala7 mutant of Lyn peptide]” here?
A: −0.41
